Measurements: paper PMC8126888 (RSC Medicinal Chemistry, 2020)
Where two headings read alike, the source gives them in different places.

Tests used:
[1] = in vitro; settings: human, HepG2 cells
[2] = in vitro; settings: human, HFF-1 cells
[3] = physchem; settings: HPLC, Ascentis Express RP Amide column, pH 7.4, eLogD, experimental
[4] = test system: Trypanosoma cruzi, Tulahuen CL2, beta-galactosidase strain; test: microbe, parasite or virus in culture; settings: MRC5, read-out: T. cruzi Tulahuen C4 (LacZ) IC50 (uM)
[5] = in vitro; settings: PAMPA
[6] = test system: primary peritoneal mouse macrophages (PMM); test: cells; settings: Macrophage, read-out: PMM IC50 (uM)
[7] = test system: Leishmania infantum MHOM/MA(BE)/67/ITMAP263 intracellular amastigotes; test: microbe, parasite or virus in culture; settings: Macrophage, in Mus musculus
[8] = in vitro; settings: mouse, microsomes, pH 7.4, MLM CLint (uL/min/mg), mouse liver microsomes
[9] = in vitro; settings: human, microsomes, pH 7.4, HLM CLint (uL/min/mg), human liver microsomes
[10] = in vitro; settings: human
[11] = read-out: L. Inf. pIC50, from L. infantum intracellular amastigote IC50 (converted)
[12] = read-out: L. infantum MHOM/MA(BE)/67/ITMAP263 intracellular amastigotes IC50 (uM), intracellular amastigotes

SMILES	CC50 [1] [µM]	CC50 [2] [µM]	chromatographic logD [3]	IC50 [4] [µM]	Papp [5] [×10⁻⁶ cm/s]	IC50 [6] [µM]	IC50 [7, 11] [µM]	IC50 [7, 12] [µM]	microsomal CLint at 0.5 μM [8] [µL/min/mg]	microsomal CLint at 0.5 μM [9] [µL/min/mg]	CC50 at 3 days [10] [µM]
COc1ccc(S(=O)(=O)N2CCOCC2)cc1C(=O)N(Cc1ccc(F)cc1)Cc1ccc(F)cc1 [DNDI0003389643]	> 64	> 64	3.9	16.6	4.14	> 64	17	16.9	610	717	> 64
COc1ccc(C(=O)N2CCOCC2)cc1S(=O)(=O)N(Cc1ccc(F)cc1)Cc1ccc(F)cc1 [DNDI0003371178]	44.5	46.9	4	50.7	9.35	> 64	1.02	1.02	984	997	> 64
N#Cc1ccc(O)c(S(=O)(=O)N(Cc2ccc(F)cc2)Cc2ccc(F)cc2)c1 [DNDI0003389125]	> 64	7.8	3.5	16.8	13.2	45.2	30.9	30.7	366	33	4
CS(=O)(=O)c1ccccc1S(=O)(=O)N(Cc1ccccc1)Cc1ccccc1 [DNDI0003389642]	> 64	38.1	4.1	24.3	6.25	> 64	32.4	32	502	248	> 64
COc1ccc(N2CCOCC2)cc1S(=O)(=O)N(Cc1ccc(F)cc1)Cc1ccc(F)cc1 [DNDI0003389118]	> 64	15.2	4.3	7.91	2.55	> 64	0.324	0.32	488	82	> 64
CN(C)c1ncccc1S(=O)(=O)N(Cc1ccc(F)cc1)Cc1ccc(F)cc1 [DNDI0003389117]	56.7	16.7	4.6	12.6	1.18	> 64	6.03	5.99	903	728	42.7
CNCCOc1ccc(F)cc1S(=O)(=O)N(Cc1ccc(F)cc1)Cc1ccc(F)cc1 [DNDI0003389318]	6.84	7.25	5.3	5.11	0.43	8	2.4	2.38	84	46	4.22
COc1ccc(Cl)cc1S(=O)(=O)N(Cc1ccccc1)CC(N)c1ccc(F)cc1 (centres unmarked) [DNDI0003389932]	19.5	> 64	4.3	4.64	0.59	32	6.46	6.39	239	34	14
COc1ccc(C(=O)NCCO)cc1S(=O)(=O)N(Cc1ccc(F)cc1)Cc1ccc(F)cc1 [DNDI0003371176]	> 64	> 64	3.8	44.3	5.78	> 64	2.51	2.53	410	131	> 64
COc1ccc(C(=O)N2CCN(C)CC2)cc1S(=O)(=O)N(Cc1ccc(F)cc1)Cc1ccc(F)cc1 [DNDI0003371173]	49.5	4.16	4.7	11.1	3.23	32	0.537	0.54	2240	585	25.8
COCCNC(=O)c1ccc(OC)c(S(=O)(=O)N(Cc2ccc(F)cc2)Cc2ccc(F)cc2)c1 [DNDI0003371177]	54.1	> 64	4.1	40.4	8.63	> 64	1.02	1.03	1670	407	> 64
COc1ccc(CN(Cc2ccc(F)cc2)S(=O)(=O)c2cc(F)ccc2OCC[N+](C)(C)CC(=O)O)cc1 [DNDI0003389931]	> 64	61.1	3.8	13.1	0.36	> 64	> 64	> 64	17	14	> 64
COc1ccc(Cl)cc1S(=O)(=O)N(Cc1ccccc1)C(CO)CO [DNDI0003389933]	> 64	> 64	3.2	14.3	13.2	> 64	57.5	57	253	109	> 64
O=S(=O)(c1cc(N2CCOCC2)ccc1OC(F)F)N(Cc1ccc(F)cc1)Cc1ccc(F)cc1 [DNDI0003389647]	> 64	37.6	4.8	5.62	0.12	45.2	0.501	0.5	462	153	> 64
COc1ccc(C(=O)N(C)CCO)cc1S(=O)(=O)N(Cc1ccc(F)cc1)Cc1ccc(F)cc1 [DNDI0003371175]	57.6	60.2	3.8	25.3	11.2	> 64	2.09	2.08	605	498	> 64
COc1ccc(CN2CCC(F)(F)CC2)cc1S(=O)(=O)N(Cc1ccc(F)cc1)Cc1ccc(F)cc1 [DNDI0003389116]	> 64	18.2	4.8	2.93	0.4	45.2	3.16	3.18	1760	984	> 64
